The results in this text go back to PubChem BioAssay (NCI).

Test systems include A549 NSCLC; RXF 393 renal; HS 578T breast; K-562 leukemia; 786-0 renal; COLO 205 colon; ACHN renal; SK-MEL-5 melanoma; IGROV1 ovarian; NCI-H226 lung.
Assay in all cases: NCI tumour cell line growth inhibition, 48 h

The structures appear in SMILES notation. Several values for one entry are separate records, joined by “and”; a condition that tells them apart may be missing. Identical values can stand only once.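 Grown in 96-well plates, cells were treated for 48 hours with each compound at five concentrations. Insufficient inhibition: endpoint recorded as highest concentration tested. Abbreviation: GI50, concentration required for 50% inhibition of growth. TGI marks complete inhibition of growth.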

Turning to `O=C(CN1CCN(c2ccccn2)CC1)Nc1ccc(Cl)cc1C(=O)c1ccccc1Cl`, the GI50 in the test with A549 NSCLC is 14.3 µM; with RXF 393 renal it was over 100 µM; in the test with HS 578T breast, over 100 µM; in the test with K-562 leukemia, 3.55 µM; with 786-0 renal, 1.57 µM; in the test with COLO 205 colon, over 100 µM. Also, the GI50 in the test on ACHN renal was 56.1 µM; in the test with SK-MEL-5 melanoma it was 10.2 µM; in the test on IGROV1 ovarian, 89.2 µM; in the test on NCI-H226 lung, over 100 µM. The TGI in the test with A549 NSCLC, in the test on RXF 393 renal, in the test with HS 578T breast, with K-562 leukemia, in the test with 786-0 renal and with COLO 205 colon was over 100 µM in each case. The TGI was over 100 µM in the test with ACHN renal, 38.3 µM in the test on SK-MEL-5 melanoma, over 100 µM in the test on IGROV1 ovarian and over 100 µM in the test on NCI-H226 lung.
Take `CSc1nc(-c2cccc(NC(=O)CCl)c2)c(C#N)c(=O)n1C`: the GI50 is 3.28 µM in the test with A549 NSCLC; 1.54 µM in the test on RXF 393 renal; 2.33 µM with HS 578T breast; 1.28 µM in the test on K-562 leukemia; 1.75 µM in the test on 786-0 renal; 1.7 µM in the test with COLO 205 colon. Moreover, the GI50 in the test on ACHN renal was 1.03 µM; in the test on SK-MEL-5 melanoma it was 1.33 µM; with IGROV1 ovarian, 0.248 µM; in the test on NCI-H226 lung, 3.65 µM. Also, the TGI is 17.4 µM in the test with A549 NSCLC; 3.03 µM with RXF 393 renal; 7.45 µM in the test on HS 578T breast; over 100 µM in the test with K-562 leukemia; 3.45 µM in the test with 786-0 renal; 3.94 µM in the test on COLO 205 colon. For the same compound, the TGI in the test with ACHN renal came out at 2.22 µM; in the test with SK-MEL-5 melanoma, 2.74 µM; in the test with IGROV1 ovarian, 1.41 µM; in the test with NCI-H226 lung, 44.3 µM.
`CCCC(CCC)C(=O)O`: the GI50 in the test on A549 NSCLC was over 100 µM; with RXF 393 renal it was over 100 µM; in the test on K-562 leukemia it was over 100 µM; with 786-0 renal, over 20000 µM; in the test with COLO 205 colon, over 100 µM; in the test with ACHN renal, over 100 µM. Moreover, the GI50 with IGROV1 ovarian is over 100 µM; in the test on NCI-H226 lung, over 20000 µM. Further, the TGI in the test with A549 NSCLC is over 20000 µM; in the test with RXF 393 renal, > 100 µM and 14600 µM; in the test on HS 578T breast, over 20000 µM; with K-562 leukemia, over 20000 µM; in the test with 786-0 renal, over 20000 µM; with COLO 205 colon it was > 100 µM and 10300 µM. For the same compound, the TGI was > 100 µM and 17400 µM in the test with ACHN renal; 9570 µM with SK-MEL-5 melanoma; over 20000 µM in the test with IGROV1 ovarian; over 20000 µM with NCI-H226 lung.
As to `CCC(=O)OCN1C(=O)C=CC1=O`, the TGI with A549 NSCLC is 39.9 µM and 34.9 µM; with RXF 393 renal, 30.6 µM and 30.5 µM; with HS 578T breast, 73.3 µM and 36.5 µM; with 786-0 renal, 41.4 µM and 11.3 µM; with COLO 205 colon, 3.56 µM and 11.3 µM; in the test with ACHN renal, 28.5 µM and 19.7 µM. The TGI in the test on SK-MEL-5 melanoma is 42.5 µM and > 58.1 µM; with IGROV1 ovarian, 40.5 µM and 34.2 µM; in the test with NCI-H226 lung, 30.1 µM and > 63.3 µM. Also, the GI50 in the test with HS 578T breast is 27.8 µM; with K-562 leukemia it was 4.19 µM; in the test on 786-0 renal, 21.7 µM; in the test on COLO 205 colon it was 1.84 µM; with ACHN renal, 15.1 µM; with SK-MEL-5 melanoma, 18.9 µM. The GI50 in the test on IGROV1 ovarian was 21.4 µM; in the test with NCI-H226 lung, 15.2 µM.
For the compound `Nc1ncnc2c1ncn2C1OC(C(=O)OCCO)C(O)C1O` (stereo not given), the TGI in the test on A549 NSCLC, with RXF 393 renal, in the test with HS 578T breast, in the test on K-562 leukemia, with 786-0 renal and with COLO 205 colon was over 100 µM in each case. The TGI in the test on ACHN renal, in the test on SK-MEL-5 melanoma, with IGROV1 ovarian and in the test on NCI-H226 lung was over 100 µM each time.
In the case of `Cn1c(=O)c2[nH]cnc2n(C)c1=O.[CH2-]C(Cc1cccc2cc(C(=O)O)c(=O)oc12)OC.[Hg+2].[OH-]` (stereo not given), the GI50 in the test with A549 NSCLC is 19 µM; in the test on RXF 393 renal, 19.3 µM; in the test on HS 578T breast, 22.2 µM; with K-562 leukemia it was 18.9 µM; in the test on 786-0 renal, 16.6 µM; with COLO 205 colon it was 17.1 µM. The GI50 with ACHN renal is 16.3 µM; with SK-MEL-5 melanoma it was 17.4 µM; with IGROV1 ovarian, 17.3 µM; with NCI-H226 lung, 21.4 µM. For the same compound, the TGI in the test with A549 NSCLC worked out at 37.4 µM; in the test with RXF 393 renal, 35.9 µM; with HS 578T breast, 57.3 µM; in the test on K-562 leukemia it was 77.4 µM; in the test on 786-0 renal it was 30.2 µM; in the test on COLO 205 colon, 30.9 µM. The TGI in the test with ACHN renal is 29.9 µM; with SK-MEL-5 melanoma it was 31.2 µM; in the test on IGROV1 ovarian, 31.4 µM; with NCI-H226 lung, 40.7 µM.
With `NCCNc1ncnc2ccc(Cl)cc12`, the TGI in the test on A549 NSCLC, in the test with RXF 393 renal, in the test on HS 578T breast, in the test with K-562 leukemia, in the test with 786-0 renal and in the test with COLO 205 colon was over 100 µM in each case. Besides, the TGI in the test with ACHN renal, in the test on SK-MEL-5 melanoma, in the test on IGROV1 ovarian and with NCI-H226 lung was over 100 µM throughout.
Regarding `C=CC(=O)Nc1cccc(Nc2nc(Nc3ccc(N4CCN(C(C)=O)CC4)cc3OC)ncc2C(F)(F)F)c1`, the GI50 in the test with A549 NSCLC was 2.52 µM and 1.81 µM; in the test on RXF 393 renal, 2.83 µM and 2.17 µM; in the test with HS 578T breast, 3.73 µM and 3.36 µM; with K-562 leukemia it was 8.12 µM and 5.61 µM; in the test on 786-0 renal, 2.67 µM and 1.56 µM; with COLO 205 colon, 1.86 µM and 1.78 µM. Further, the GI50 with ACHN renal is 2.96 µM and 1.84 µM; in the test on SK-MEL-5 melanoma, 4.12 µM and 4.3 µM; with IGROV1 ovarian, 1.94 µM and 2.71 µM; in the test on NCI-H226 lung, 3.29 µM and 2.38 µM. The TGI was > 10 µM and 12.1 µM in the test with A549 NSCLC; > 10 µM and 10.1 µM with RXF 393 renal; over 95.9 µM with HS 578T breast; over 100 µM in the test with K-562 leukemia; > 10 µM and 12.8 µM in the test with 786-0 renal; 4.71 µM and 5.75 µM with COLO 205 colon. Besides, the TGI is over 30.3 µM in the test on ACHN renal; > 10 µM and 17.9 µM in the test with SK-MEL-5 melanoma; 9.84 µM and 13.6 µM in the test with IGROV1 ovarian; > 10 µM and 12.7 µM with NCI-H226 lung.
Regarding `COC(=O)[C@]1(C)CC[C@]2(C)CC[C@]3(C)C(=CC(=O)[C@@H]4[C@@]5(C)CCC(=O)NC(C)(C)[C@@H]5CC[C@]43C)[C@@H]2C1`, the GI50 is 32.8 µM in the test on A549 NSCLC; 13.5 µM with RXF 393 renal; 32.7 µM in the test on HS 578T breast; 7.4 µM in the test on K-562 leukemia; 18.3 µM with 786-0 renal; 17.1 µM in the test with COLO 205 colon. In addition, the GI50 in the test on ACHN renal was 24 µM; in the test with SK-MEL-5 melanoma, 14.7 µM; in the test on IGROV1 ovarian, 26.7 µM; in the test on NCI-H226 lung, 14.9 µM. For the same compound, the TGI with A549 NSCLC is over 100 µM; in the test on RXF 393 renal, 27.5 µM; in the test on HS 578T breast it was over 100 µM; with K-562 leukemia, 66.5 µM; in the test on 786-0 renal, 35 µM; in the test with COLO 205 colon, 50.4 µM. Further, the TGI with ACHN renal was 89.4 µM; in the test with SK-MEL-5 melanoma, 28.9 µM; in the test with IGROV1 ovarian, over 100 µM; in the test with NCI-H226 lung it was 35.4 µM.
